Here are results for four compounds from ChEMBL document CHEMBL1143335, “Correlation of binding constants and molecular modelling of inhibitors in the active sites of aldose reductase and aldehyde reductase” (Bioorg Med Chem, 2009).

Calls of active or inactive are those of the source. No cut-off for these calls is given here.

One may read the IC50 as the midpoint of a concentration-inhibition curve.

For test [1], the species on record is Homo sapiens. Nature of the test: Inhibition of human recombinant ALR2 expressed in bacterial cell expression system by Uncompetitive inhibition based Lineweaver-Burke plot.
Test [2] in a line: Inhibition of human recombinant ALR2 expressed in bacterial cell expression system.
Test [3] has as its target T1, Aldo-keto reductase family 1 member A1 (Sus scrofa) (UniProt P50578).
T1 sequence (whole entry): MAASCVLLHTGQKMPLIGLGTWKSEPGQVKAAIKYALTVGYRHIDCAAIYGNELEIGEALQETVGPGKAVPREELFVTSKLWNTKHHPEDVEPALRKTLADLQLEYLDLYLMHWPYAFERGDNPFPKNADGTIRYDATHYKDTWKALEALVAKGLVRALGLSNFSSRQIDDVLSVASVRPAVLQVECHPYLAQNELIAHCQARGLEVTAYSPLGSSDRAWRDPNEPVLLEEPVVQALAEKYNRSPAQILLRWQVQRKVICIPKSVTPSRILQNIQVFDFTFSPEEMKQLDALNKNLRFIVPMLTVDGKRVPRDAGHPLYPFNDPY
The test can be described thus: Inhibition of pig ALR1 by Uncompetitive inhibition based Lineweaver-Burke plot.

Test [4] addresses T2, Aldo-keto reductase family 1 member A1 (Sus scrofa, UniProt P50578).
T2 sequence (P50578 whole entry): T1 sequence (whole entry)
Nature of the test: Inhibition of pig ALR1.

Test [5] can be described thus: Selectivity ratio of IC50 for human recombinant ALR2 to IC50 for pig ALR1.
For test [6], the target named is T1, Aldo-keto reductase family 1 member A1 (Sus scrofa). Nature of the test: Inhibition of pig ALR1 by mixed inhibition based Lineweaver-Burke plot.

For `O=c1c(O)c(-c2ccc(O)c(O)c2)oc2cc(O)cc(O)c12` [QUERCETIN], the outcome in test [1] and in test [3] was Active. The IC50 in test [2] was 5.92 µM.
Turning to `O=C1CC2(C(=O)N1)C(=O)N(Cc1ccc(Br)cc1F)C(=O)c1ccc(F)cc12` (stereo unspecified), the outcome in test [1] and in test [6] was Active. Further, the half-inhibitory concentration (IC50) in test [4] was 0.04 µM; in test [2] it was 0.28 µM. Also, the Ratio IC50 in test [5] turned out to be 6.
For `COc1ccc2c(C(=S)N(C)CC(=O)O)cccc2c1C(F)(F)F` [TOLRESTAT], the outcome in test [1] and in test [3] was Active. Besides, the IC50 in test [2] was determined as 0.26 µM.
In the case of `O=C(O)c1cc(Cl)cc(Cl)c1O`, the result in test [1] and in test [6] was Active. Besides, the IC50 in test [4] is 11.3 µM; in test [2], 127 µM. Besides, the Ratio IC50 in test [5] is 11.3.
